The source of these data is ChEMBL document CHEMBL2331421, “Amino acid derived quinazolines as Rock/PKA inhibitors” (Bioorg Med Chem Lett, 2013).

One data set has as its target CYP2C9 (Homo sapiens, UniProt P11712). Put plainly: Inhibition of CYP2C9 (unknown origin) at 10 uM relative to control. Format: ADME.
Data set [1] concerns the target Mitogen-activated protein kinase 8 (Homo sapiens, UniProt P45983). Put plainly: Inhibition of JNK1 (unknown origin).
A short description of data set [2]: Half life in human liver microsomes. Format: ADME, Microsome. (In general: Liver microsomes are a subcellular fraction often used to study metabolism.)
Data set [3] can be described thus: Inhibition of PKA (unknown origin). On the set-up: species or system Homo sapiens.
Data set [4] in a line: Inhibition of ROCK in rat A7r5 cells assessed as inhibition of myosin light chain bisphosphorylation by Western blot analysis. The format is cell-based. A general note: Immunoblotting shows a protein as a band on a membrane.
The target of another data set is CYP2D6 (Homo sapiens, UniProt P10635). Kind of data set: Inhibition of CYP2D6 (unknown origin) at 10 uM relative to control. Format: ADME.
Data set [5] concerns the target Mitogen-activated protein kinase 10 (Homo sapiens, UniProt P53779). Put plainly: Inhibition of JNK3 (unknown origin).
Another data set deals with T1, CYP1A2 (Homo sapiens, UniProt P05177).
T1 sequence (P05177 whole entry): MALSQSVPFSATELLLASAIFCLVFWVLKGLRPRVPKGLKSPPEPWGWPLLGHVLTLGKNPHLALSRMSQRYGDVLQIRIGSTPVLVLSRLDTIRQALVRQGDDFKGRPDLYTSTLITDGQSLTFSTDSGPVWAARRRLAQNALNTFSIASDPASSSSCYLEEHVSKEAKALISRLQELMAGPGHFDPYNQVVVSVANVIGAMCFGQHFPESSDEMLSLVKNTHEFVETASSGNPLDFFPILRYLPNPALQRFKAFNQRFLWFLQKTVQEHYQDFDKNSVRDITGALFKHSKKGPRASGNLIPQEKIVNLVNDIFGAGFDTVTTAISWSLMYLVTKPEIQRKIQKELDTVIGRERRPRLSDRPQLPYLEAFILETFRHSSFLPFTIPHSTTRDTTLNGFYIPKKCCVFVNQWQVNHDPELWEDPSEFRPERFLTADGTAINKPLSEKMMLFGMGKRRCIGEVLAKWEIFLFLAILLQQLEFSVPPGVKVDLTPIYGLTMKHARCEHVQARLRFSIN
Put plainly: Inhibition of CYP1A2 (unknown origin) at 10 uM relative to control. The format is ADME.

For a further data set, the target named is CYP3A4 (Homo sapiens, UniProt P08684). Put plainly: Inhibition of CYP3A4 (unknown origin) at 10 uM relative to control. Format: ADME.
Data set [6] deals with Serine/threonine-protein kinase MRCK alpha (Homo sapiens, UniProt Q5VT25). Put plainly: Inhibition of MRCKalpha (unknown origin).
Data set [7] deals with Mitogen-activated protein kinase 14 (Homo sapiens, UniProt Q16539). Kind of data set: Inhibition of p38alpha (unknown origin).
For data set [8], the target named is Mitogen-activated protein kinase 9 (Homo sapiens, UniProt P45984). Put plainly: Inhibition of JNK2 (unknown origin).
Data set [9] has as its target Rho-associated protein kinase 1 (Homo sapiens, UniProt Q13464). Kind of data set: Inhibition of ROCK1 (unknown origin).
For data set [10], the target named is Rho-associated protein kinase 2 (Homo sapiens, UniProt O75116). Kind of data set: Inhibition of human recombinant 6-His-tagged ROCK2 expressed in baculovirus-infected Sf9 cells using LCB-AKRRRLSSLRA-NH2 as substrate after 25 mins by TR-FRET assay. (Time-resolved FRET reads energy transfer from a long-lived donor to a nearby acceptor.)

Bounds are passed on as bounds.

Chain of Mitogen-activated protein kinase 8 (P45983 whole entry): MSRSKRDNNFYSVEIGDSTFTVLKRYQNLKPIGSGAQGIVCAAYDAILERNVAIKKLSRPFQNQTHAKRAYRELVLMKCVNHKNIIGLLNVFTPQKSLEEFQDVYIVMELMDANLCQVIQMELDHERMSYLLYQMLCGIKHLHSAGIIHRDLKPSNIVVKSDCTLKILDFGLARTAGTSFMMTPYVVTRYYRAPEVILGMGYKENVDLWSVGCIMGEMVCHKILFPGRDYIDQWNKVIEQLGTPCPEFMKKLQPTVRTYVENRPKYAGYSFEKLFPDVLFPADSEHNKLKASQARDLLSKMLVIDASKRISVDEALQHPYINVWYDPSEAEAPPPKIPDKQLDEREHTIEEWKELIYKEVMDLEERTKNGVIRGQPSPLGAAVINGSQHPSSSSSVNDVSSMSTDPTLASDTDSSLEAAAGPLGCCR
Chain of Rho-associated protein kinase 2 (O75116 whole entry): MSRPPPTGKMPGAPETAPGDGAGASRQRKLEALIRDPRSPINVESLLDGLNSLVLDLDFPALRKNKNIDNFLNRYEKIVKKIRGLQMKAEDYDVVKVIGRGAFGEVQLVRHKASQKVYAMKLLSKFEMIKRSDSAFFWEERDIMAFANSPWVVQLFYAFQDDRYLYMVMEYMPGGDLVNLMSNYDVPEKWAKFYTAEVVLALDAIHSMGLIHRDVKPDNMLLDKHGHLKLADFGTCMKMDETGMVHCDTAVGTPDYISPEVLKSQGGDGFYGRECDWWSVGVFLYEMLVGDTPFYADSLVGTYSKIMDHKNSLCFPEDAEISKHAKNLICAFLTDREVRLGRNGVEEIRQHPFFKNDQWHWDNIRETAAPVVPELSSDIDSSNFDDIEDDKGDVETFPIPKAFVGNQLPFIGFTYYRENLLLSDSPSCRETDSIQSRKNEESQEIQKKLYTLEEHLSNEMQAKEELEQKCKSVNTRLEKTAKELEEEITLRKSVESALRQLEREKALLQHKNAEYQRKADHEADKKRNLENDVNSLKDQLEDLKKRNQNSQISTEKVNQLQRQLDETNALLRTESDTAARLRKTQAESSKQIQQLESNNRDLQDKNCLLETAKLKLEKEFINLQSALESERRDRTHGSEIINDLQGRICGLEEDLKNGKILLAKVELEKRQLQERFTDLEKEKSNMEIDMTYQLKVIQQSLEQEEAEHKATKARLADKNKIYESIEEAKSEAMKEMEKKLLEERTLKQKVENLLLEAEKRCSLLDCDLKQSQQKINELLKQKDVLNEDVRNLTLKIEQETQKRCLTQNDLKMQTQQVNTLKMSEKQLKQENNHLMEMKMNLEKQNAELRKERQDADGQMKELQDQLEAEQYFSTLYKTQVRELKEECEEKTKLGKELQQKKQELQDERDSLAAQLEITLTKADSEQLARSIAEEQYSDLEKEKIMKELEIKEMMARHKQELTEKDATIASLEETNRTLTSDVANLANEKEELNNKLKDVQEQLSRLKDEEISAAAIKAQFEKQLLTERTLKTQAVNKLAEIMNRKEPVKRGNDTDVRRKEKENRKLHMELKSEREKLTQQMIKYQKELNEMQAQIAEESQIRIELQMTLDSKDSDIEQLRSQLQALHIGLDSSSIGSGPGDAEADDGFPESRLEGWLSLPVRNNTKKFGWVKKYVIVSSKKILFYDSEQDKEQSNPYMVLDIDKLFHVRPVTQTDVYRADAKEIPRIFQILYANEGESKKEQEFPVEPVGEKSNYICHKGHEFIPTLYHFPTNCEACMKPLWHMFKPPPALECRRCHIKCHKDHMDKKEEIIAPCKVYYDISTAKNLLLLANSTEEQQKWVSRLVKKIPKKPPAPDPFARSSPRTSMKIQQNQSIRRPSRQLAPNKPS
Chain of Mitogen-activated protein kinase 10 (P53779 whole entry): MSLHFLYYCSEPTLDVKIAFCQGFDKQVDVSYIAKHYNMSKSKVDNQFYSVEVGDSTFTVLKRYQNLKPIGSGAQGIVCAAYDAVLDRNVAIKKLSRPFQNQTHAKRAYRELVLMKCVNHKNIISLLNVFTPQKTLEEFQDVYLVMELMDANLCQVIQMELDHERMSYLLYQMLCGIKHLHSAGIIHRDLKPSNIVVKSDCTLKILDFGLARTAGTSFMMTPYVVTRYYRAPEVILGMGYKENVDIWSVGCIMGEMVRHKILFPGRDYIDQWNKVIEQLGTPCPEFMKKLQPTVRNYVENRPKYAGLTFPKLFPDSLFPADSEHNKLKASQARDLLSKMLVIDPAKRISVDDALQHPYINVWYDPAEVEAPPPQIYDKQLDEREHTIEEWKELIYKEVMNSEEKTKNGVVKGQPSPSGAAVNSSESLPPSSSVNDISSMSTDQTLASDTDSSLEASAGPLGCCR
Chain of CYP2D6 (P10635 whole entry): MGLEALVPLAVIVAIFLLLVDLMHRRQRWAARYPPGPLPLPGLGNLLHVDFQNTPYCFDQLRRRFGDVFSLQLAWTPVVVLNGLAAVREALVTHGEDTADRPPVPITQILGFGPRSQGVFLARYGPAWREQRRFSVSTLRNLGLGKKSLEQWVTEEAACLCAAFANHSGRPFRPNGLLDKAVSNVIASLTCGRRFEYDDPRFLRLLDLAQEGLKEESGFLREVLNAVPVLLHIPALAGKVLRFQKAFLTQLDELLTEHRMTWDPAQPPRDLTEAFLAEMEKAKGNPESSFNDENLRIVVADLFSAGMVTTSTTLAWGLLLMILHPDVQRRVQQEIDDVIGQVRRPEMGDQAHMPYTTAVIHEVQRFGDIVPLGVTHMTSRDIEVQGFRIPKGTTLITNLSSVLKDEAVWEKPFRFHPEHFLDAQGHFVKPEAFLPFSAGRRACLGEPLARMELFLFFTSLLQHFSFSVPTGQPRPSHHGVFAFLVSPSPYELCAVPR
Chain of CYP2C9 (P11712 whole entry): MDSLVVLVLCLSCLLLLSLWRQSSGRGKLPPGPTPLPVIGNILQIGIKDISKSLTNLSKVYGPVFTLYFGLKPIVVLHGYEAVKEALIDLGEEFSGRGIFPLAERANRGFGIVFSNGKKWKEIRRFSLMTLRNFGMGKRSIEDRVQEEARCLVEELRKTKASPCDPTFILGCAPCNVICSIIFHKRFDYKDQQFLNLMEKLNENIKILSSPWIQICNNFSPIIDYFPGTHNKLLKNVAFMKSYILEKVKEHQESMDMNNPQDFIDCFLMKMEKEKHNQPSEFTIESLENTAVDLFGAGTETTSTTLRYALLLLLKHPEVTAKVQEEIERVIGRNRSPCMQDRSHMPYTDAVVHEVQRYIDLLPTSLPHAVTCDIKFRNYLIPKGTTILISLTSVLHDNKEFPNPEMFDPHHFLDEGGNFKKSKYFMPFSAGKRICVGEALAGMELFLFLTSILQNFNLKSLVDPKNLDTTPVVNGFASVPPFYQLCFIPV
Chain of Serine/threonine-protein kinase MRCK alpha (Q5VT25 whole entry): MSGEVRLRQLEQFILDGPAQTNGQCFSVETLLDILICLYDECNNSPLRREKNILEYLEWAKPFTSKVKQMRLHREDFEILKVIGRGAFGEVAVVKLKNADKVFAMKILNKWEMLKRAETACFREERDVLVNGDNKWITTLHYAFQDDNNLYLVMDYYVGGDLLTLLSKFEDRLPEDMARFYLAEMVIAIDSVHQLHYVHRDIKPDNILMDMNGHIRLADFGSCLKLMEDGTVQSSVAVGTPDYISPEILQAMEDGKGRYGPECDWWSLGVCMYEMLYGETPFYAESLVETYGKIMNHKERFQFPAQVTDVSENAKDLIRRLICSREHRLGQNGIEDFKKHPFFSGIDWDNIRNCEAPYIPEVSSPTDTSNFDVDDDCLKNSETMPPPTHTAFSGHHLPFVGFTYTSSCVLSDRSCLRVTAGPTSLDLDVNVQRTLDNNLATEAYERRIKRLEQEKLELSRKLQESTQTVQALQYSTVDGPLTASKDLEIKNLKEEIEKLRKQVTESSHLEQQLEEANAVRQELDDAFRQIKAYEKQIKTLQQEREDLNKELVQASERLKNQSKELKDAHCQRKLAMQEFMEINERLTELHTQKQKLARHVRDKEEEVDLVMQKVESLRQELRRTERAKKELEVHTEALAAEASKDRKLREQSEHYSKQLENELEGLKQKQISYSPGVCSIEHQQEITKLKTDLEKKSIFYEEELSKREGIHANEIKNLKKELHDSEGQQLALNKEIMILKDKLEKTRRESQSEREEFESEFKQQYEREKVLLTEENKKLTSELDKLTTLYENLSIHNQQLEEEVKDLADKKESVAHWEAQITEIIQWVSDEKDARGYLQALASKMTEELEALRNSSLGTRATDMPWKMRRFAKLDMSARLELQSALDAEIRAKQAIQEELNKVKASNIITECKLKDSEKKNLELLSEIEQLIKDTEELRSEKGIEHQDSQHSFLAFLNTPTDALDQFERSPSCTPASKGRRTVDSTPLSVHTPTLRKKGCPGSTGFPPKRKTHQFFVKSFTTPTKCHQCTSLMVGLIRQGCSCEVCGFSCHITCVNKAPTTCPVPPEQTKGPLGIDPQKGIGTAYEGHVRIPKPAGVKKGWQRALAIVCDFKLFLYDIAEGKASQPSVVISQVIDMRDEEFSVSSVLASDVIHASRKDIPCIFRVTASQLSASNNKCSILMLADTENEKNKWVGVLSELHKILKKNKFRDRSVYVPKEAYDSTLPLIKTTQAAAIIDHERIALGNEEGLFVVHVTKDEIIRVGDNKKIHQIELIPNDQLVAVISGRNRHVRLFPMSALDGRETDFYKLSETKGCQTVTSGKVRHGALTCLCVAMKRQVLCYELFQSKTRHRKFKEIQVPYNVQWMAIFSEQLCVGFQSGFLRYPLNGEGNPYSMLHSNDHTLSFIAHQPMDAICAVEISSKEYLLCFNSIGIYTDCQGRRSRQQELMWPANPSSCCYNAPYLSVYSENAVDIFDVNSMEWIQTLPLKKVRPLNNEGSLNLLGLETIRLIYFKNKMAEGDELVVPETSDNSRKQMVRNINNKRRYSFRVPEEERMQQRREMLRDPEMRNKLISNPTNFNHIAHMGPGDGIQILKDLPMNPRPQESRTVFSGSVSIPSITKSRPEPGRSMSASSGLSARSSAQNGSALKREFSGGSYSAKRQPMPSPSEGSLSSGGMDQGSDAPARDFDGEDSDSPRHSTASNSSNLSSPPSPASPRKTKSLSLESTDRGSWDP

With `COc1cc(-c2cn[nH]c2)cc2c(=O)[nH]c([C@H](N)Cc3cccc(F)c3)nc12`, the inhibition (as a rule, the change of the read-out against control, counted positive when it falls) at 10 µM was determined as 10% at CYP2C9, 57% against CYP2D6, 34% on CYP1A2 and 63% against CYP3A4. The IC50 (usually the concentration needed to halve the response being measured) is above 1 µM in [1]; 0.024 µM in [3]; 0.47 µM in [4]; above 1 µM in data set [5]; above 1 µM in data set [6]; above 1 µM in data set [7]. Also, the values for the IC50 in data set [8], in data set [9] and in data set [10] were above 1 µM, 0.007 µM and 0.007 µM, respectively. For the same compound, the half-life – broadly, how long it takes for the measured level to halve – in data set [2] stood at 36 min.

In the case of `NC(c1cccc(Cl)c1)c1nc2ccc(-c3cn[nH]c3)cc2c(=O)[nH]1` (centres undefined), the inhibition at 10 µM came out at 84% on CYP2C9, 89% against CYP2D6, 18% at CYP1A2 and 75% at CYP3A4. The IC50 is above 1 µM in data set [1]; 0.091 µM in [4]; above 1 µM in data set [5]; above 1 µM in [6]; above 1 µM in data set [7]; above 1 µM in data set [8]. Also, the IC50 stood at 0.015 µM in data set [9] and 0.013 µM in data set [10]. This compound registered a half-life in data set [2] of 46 min.

For `N[C@H](Cc1ccc(F)cc1)c1nc2ccc(-c3cn[nH]c3)cc2c(=O)[nH]1`, the inhibition at 10 µM was 36% on CYP2C9, 89% on CYP2D6, 19% on CYP1A2 and 37% on CYP3A4. In addition, the IC50 was above 1 µM in data set [1]; 0.017 µM in [3]; above 1 µM in data set [5]; above 1 µM in data set [6]; above 1 µM in data set [7]; above 1 µM in [8]. Further, the IC50 in data set [9] and in data set [10] was 0.008 µM each time. Besides, the half-life in [2] is 65 min.

As for `COc1ccc([C@@H]2CN(C)C[C@H]2c2nc3ccc(-c4cn[nH]c4)cc3c(=O)[nH]2)cc1`, the inhibition at 10 µM is 55% against CYP2C9, 66% against CYP2D6, 0% on CYP1A2 and -3% on CYP3A4. Further, the IC50 in data set [1] is above 1 µM; in data set [3], 0.026 µM; in data set [4] it was 0.03 µM; in data set [5], above 1 µM; in data set [6] it was above 1 µM; in data set [7], above 1 µM. For the same compound, the IC50 was above 1 µM in data set [8], 0.013 µM in data set [9] and 0.005 µM in data set [10]. The compound further displayed a half-life in data set [2] of 21 min.

With `NCc1ccc(C(=O)NC(c2ccc(Cl)cc2)c2nc3ccc(-c4cn[nH]c4)cc3c(=O)[nH]2)cc1` (centres undefined), the inhibition at 10 µM at CYP2C9 came out at 94%; against CYP2D6 it was 96%; against CYP1A2, 90%; against CYP3A4, 63%. The IC50 is above 1 µM in data set [1]; 0.096 µM in data set [3]; above 1 µM in [5]; above 1 µM in [6]; above 1 µM in data set [7]; above 1 µM in data set [8]. The IC50 in data set [9] turned out to be 0.022 µM; in [10], 0.018 µM. The same compound yielded a half-life in [2] of 420 min.

`O=c1[nH]c([C@@H]2CNC[C@H]2c2ccc(Cl)cc2)nc2ccc(-c3cn[nH]c3)cc12`: the inhibition at 10 µM at CYP2C9 was 34%; against CYP2D6 it was 75%; against CYP1A2 it was 65%; against CYP3A4, 30%. The IC50 in data set [1] is above 1 µM; in data set [3] it was 0.002 µM; in data set [4], 0.023 µM; in data set [5] it was above 1 µM; in data set [6], above 1 µM; in [7] it was above 1 µM. Moreover, the IC50 in data set [8] is above 1 µM; in data set [9] it was 0.001 µM; in data set [10] it was below 0.001 µM. In addition, the half-life in [2] was found to be 75 min.

In the case of `N[C@@H](Cc1ccc(F)cc1)c1nc2ccc(-c3cn[nH]c3)cc2c(=O)[nH]1`, the inhibition at 10 µM on CYP2C9 came out at 38%; against CYP2D6, 89%; against CYP1A2, 12%; against CYP3A4, 31%. For the same compound, the IC50 in data set [1] is above 1 µM; in [3] it was 0.016 µM; in data set [4], 0.3 µM; in data set [5] it was above 1 µM; in data set [6], above 1 µM; in data set [7], above 1 µM. Also, the IC50 in data set [8] is above 1 µM; in data set [9], 0.017 µM; in data set [10] it was 0.009 µM. This compound also showed a half-life in [2] of 42 min.

In the case of `CN(C)c1nc([C@@H]2CNC[C@H]2c2ccccc2)nc2ccc(-c3cn[nH]c3)cc12`, the inhibition at 10 µM against CYP2C9 was determined as 47%; against CYP2D6, 88%; against CYP1A2, 49%; at CYP3A4 it was 77%. The IC50 was above 1 µM in [1]; 0.279 µM in data set [3]; 0.8 µM in [4]; above 1 µM in [5]; above 1 µM in data set [6]; above 1 µM in data set [7]. Moreover, the IC50 in data set [8] is above 1 µM; in [10], 0.0025 µM. The compound also displayed a half-life in data set [2] of 86 min.

Consider `N[C@@H](Cc1ccc(Cl)cc1)c1nc2ccc(-c3cn[nH]c3)cc2c(=O)[nH]1`, for which the inhibition at 10 µM against CYP2C9 is 54%; against CYP2D6 it was 78%; against CYP1A2, 51%; on CYP3A4, 42%. Moreover, the IC50 in data set [1] was above 1 µM; in data set [3], 0.007 µM; in data set [4], 0.3 µM; in data set [5], above 1 µM; in data set [6] it was above 1 µM; in [7] it was above 1 µM. Besides, the results for the IC50 in data set [8] and in data set [10] were above 1 µM and 0.006 µM, respectively. Also, the half-life in data set [2] was 47 min.

In the case of `CN(C)CC(=O)NC(c1ccc(Cl)cc1)c1nc2ccc(-c3cn[nH]c3)cc2c(=O)[nH]1` (centres undefined), the inhibition at 10 µM worked out at 83% against CYP2C9, 55% at CYP2D6, 10% against CYP1A2 and 23% on CYP3A4. In addition, the IC50 in [1] was above 1 µM; in data set [3], 0.007 µM; in data set [4], 0.5 µM; in data set [5] it was above 1 µM; in data set [6], above 1 µM; in data set [7], above 1 µM. Moreover, the IC50 in data set [8] was above 1 µM; in [9], below 0.001 µM; in data set [10], below 0.001 µM. This compound also came in with a half-life in [2] of 15 min.

For `COc1ccc(C[C@H](N)c2nc3ccc(-c4cn[nH]c4)cc3c(=O)[nH]2)cc1`, the inhibition at 10 µM is 52% on CYP2C9, 76% at CYP2D6, 10% on CYP1A2 and 53% on CYP3A4. The IC50 in data set [1] was above 1 µM; in data set [3] it was 0.008 µM; in data set [5] it was above 1 µM; in [6], above 1 µM; in [7], above 1 µM; in data set [8] it was above 1 µM. In addition, the half-maximal inhibitory concentration (IC50) in [9] amounted to 0.016 µM; in [10], 0.004 µM. In data set [2], the half-life is 21 min.

In the case of `COc1cc(-c2cn[nH]c2)cc2c(=O)[nH]c(C(N)c3cccc(Cl)c3)nc12` (centres undefined), the inhibition at 10 µM against CYP2C9 stood at 79%; on CYP2D6 it was 63%; against CYP1A2 it was 54%; on CYP3A4 it was 80%. In addition, the IC50 in data set [1] was above 1 µM; in [3] it was 0.011 µM; in data set [5], above 1 µM; in [6], above 1 µM; in [7] it was above 1 µM; in data set [8] it was above 1 µM. The IC50 in data set [9] and in data set [10] was 0.008 µM throughout. In data set [2], this compound yielded a half-life of 51 min.

For the compound `COc1ccc(C(N)c2nc3ccc(-c4cn[nH]c4)cc3c(=O)[nH]2)cc1` (centres undefined), the inhibition at 10 µM at CYP2C9 is 37%; against CYP2D6, 36%; at CYP1A2, -1%; against CYP3A4, 40%. Besides, the IC50 was above 1 µM in [1]; 0.02 µM in data set [3]; above 1 µM in data set [5]; above 1 µM in data set [6]; above 1 µM in data set [7]; above 1 µM in [8]. Moreover, the IC50 in [9] is 0.048 µM; in [10] it was 0.043 µM. The half-life in data set [2] stood at 64 min.
